Values of other authors as cited in patent publication US20250064725A1, “OPHTHALMIC PREPARATION OF TYROSINE KINASE INHIBITOR, AND PREPARATION METHOD THEREFOR AND USE THEREOF” (CHENGDU RUIMU BIOPHARMACEUTICALS CO., LTD., priority 2021, published 2025).

What was measured:
[1] = test system: age-related macular degeneration; settings: oral tablets 50, 100, 200 mg/day
[2] = oral administration of tablets

| SMILES | Toxicity outcome of the clinical trial [1] | Visual improvement ([1]; after 6 months) | Incidence rate of diarrhea [2] [%] | Incidence rate of fatigue [2] [%] | Incidence rate of hypertension [2] [%] | Incidence rate of loss of appetite [2] [%] | Incidence rate of nausea [2] [%] |
| --- | --- | --- | --- | --- | --- | --- | --- |
| Cc1[nH]c(/C=C2\C(=O)Nc3ccc(F)cc32)c(C)c1C(=O)N[C@H]1CCN(C(=O)N(C)C)C1 [Example X-82] | suspended due to its toxicity | non-inferior |  |  |  |  |  |
| CNC(=O)c1ccccc1Sc1ccc2c(/C=C/c3ccccn3)n[nH]c2c1 [axitinib] |  |  | 55 | 39 | 40 | 34 | 32 |
| CNC(=O)c1cc(Oc2ccc(NC(=O)Nc3ccc(Cl)c(C(F)(F)F)c3)cc2)ccn1 [sorafenib] |  |  | 53 | 32 | 29 | 29 | 22 |
